These results are taken from patent US20250340574A1, “MODULATORS OF CYSTIC FIBROSIS TRANSMEMBRANE CONDUCTANCE REGULATOR” (Vertex Pharmaceuticals Incorporated, priority 2022, published 2025).

For data set [1] the following is noted: amide bond, 13-membered ring, CDMT/NMM, DMF.
Data set [2] deals with T1, CFTR (F508del/MF-HBE cells) (Homo sapiens, UniProt P13569, DEL508-508).
T1 construct: human bronchial epithelial (HBE) cells derived from CF subjects heterozygous for F508del and a minimal function CFTR mutation (F508del/MF-HBE); endogenous in cells; host or cells: Primary human bronchial epithelial cells from CF subjects (F508del/MF genotype), differentiated at an air-liquid interface
T1 sequence (P13569 with tags, fused parts or gaps DEL508-508): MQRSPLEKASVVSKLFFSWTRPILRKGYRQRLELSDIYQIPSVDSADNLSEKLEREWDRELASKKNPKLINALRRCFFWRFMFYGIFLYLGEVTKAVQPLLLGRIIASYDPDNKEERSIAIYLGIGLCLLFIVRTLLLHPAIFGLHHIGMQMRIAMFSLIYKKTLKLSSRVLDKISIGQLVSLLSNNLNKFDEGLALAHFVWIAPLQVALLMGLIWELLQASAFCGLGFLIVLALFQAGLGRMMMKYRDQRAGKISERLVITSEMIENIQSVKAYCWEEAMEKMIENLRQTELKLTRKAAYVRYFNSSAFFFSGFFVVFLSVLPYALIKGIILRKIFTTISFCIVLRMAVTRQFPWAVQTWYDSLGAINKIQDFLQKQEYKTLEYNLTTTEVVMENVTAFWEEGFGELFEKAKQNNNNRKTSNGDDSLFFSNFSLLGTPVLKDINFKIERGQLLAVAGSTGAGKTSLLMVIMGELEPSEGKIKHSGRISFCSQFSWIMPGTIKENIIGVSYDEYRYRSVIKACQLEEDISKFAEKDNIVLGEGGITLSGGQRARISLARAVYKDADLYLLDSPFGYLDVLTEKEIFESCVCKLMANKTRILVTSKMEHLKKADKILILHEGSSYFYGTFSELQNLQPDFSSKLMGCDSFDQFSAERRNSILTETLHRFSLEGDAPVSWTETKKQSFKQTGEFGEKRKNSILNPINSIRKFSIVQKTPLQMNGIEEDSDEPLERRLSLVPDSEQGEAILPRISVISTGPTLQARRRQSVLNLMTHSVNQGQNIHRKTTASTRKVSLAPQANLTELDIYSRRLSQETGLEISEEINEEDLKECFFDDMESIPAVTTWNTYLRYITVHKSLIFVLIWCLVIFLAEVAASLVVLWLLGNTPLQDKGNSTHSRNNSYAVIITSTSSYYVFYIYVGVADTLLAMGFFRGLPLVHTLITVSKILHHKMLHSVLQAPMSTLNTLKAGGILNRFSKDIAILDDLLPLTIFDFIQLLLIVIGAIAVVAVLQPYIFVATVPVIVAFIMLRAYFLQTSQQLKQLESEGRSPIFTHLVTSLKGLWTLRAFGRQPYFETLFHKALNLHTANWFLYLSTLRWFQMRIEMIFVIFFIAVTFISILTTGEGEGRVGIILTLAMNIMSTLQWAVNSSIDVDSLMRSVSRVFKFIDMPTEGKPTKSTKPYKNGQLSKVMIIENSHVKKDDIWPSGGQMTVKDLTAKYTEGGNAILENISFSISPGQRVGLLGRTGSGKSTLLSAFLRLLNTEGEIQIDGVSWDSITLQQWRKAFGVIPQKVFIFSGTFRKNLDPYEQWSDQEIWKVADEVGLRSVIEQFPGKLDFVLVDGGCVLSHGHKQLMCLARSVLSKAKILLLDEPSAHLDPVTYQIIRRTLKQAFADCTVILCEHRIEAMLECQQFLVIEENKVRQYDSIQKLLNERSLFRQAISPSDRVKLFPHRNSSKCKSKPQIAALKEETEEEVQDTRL
Kind of data set: Ussing chamber assay of CFTR-mediated short-circuit currents, Assay C (0.026 μM to 25 μM, 6 concentrations). The note with it: with 33 nM potentiator and 18 μM Tezacaftor, 20% human serum; for Emax: read-out: C Max activity (%). In kind it is cell-based. The method in brief: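 F508del/MF-HBE cells were preincubated 18–24 h at 37 °C in 20% human serum with corrector plus 18 μM tezacaftor and either 33 nM (concentration series) or 44 nM (1 μM single point) of the aminotrifluoromethyl triazatricyclic potentiator. Ussing chamber, Vhold=0 mV, 37 °C; forskolin 20 μM stimulation, CFTR ISC taken as inhibitor-cocktail-sensitive current.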

Read-outs that look alike come from different tables or passages of the source.

In general, EC50 refers to the concentration giving half of the maximal effect. In data set [1] (from Cc1cccc(C)c1-c1cc(OC[C@@H](C[C@H]2CCC(C)(C)O2)NCc2cnc3cc(C(C)(C)C)n(C)c3n2)nc(NS(=O)(=O)c2cccc(C(=O)O)c2)n1, 22.7 mM, 25.0 °C), `Cc1cccc(C)c1-c1cc2nc(n1)NS(=O)(=O)c1cccc(c1)C(=O)N(Cc1cnc3cc(C(C)(C)C)n(C)c3n1)[C@H](C[C@H]1CCC(C)(C)O1)CO2` [IV-98, (11R)-12-[(6-tert-butyl-5-methyl-pyrrolo[2,3-b]pyrazin-3-yl)methyl]-6-(2,6-dimethylphenyl)-11-[[(2R)-5,5-dimethyltetrahydrofuran-2-yl]methyl]-2,2-dioxo-9-oxa-2λ^6-thia-3,5,12,19-tetrazatricyclo[12.3.1.14,8]nonadeca-1(18),4(19),5,7,14,16-hexaen-13-one] came in with a ring closure, yield after HPLC of 58%. Also, in data set [2], the EC50 is less than 1000 nM and the Emax is greater than 60%.

As to `Cc1cccc(C)c1-c1cc2nc(n1)NS(=O)(=O)c1cccc(c1)C(=O)N(Cc1cnc3sc(C4CC4)cc3n1)[C@H](CC13CC(C1)C3)CO2` [IV-42, (11R)-11-(1-bicyclo[1.1.1]pentanylmethyl)-12-[(6-cyclopropylthieno[2,3-b]pyrazin-2-yl)methyl]-6-(2,6-dimethylphenyl)-2,2-dioxo-9-oxa-2λ^6-thia-3,5,12,19-tetrazatricyclo[12.3.1.14,8]nonadeca-1(18),4(19),5,7,14,16-hexaen-13-one], the ring closure, yield after HPLC in data set [1] (from Cc1cccc(C)c1-c1cc(OC[C@@H](CC23CC(C2)C3)NCc2cnc3sc(C4CC4)cc3n2)nc(NS(=O)(=O)c2cccc(C(=O)O)c2)n1, 8.92 mM, 25.0 °C, 18.0 h) came out at 54%. In data set [2], the EC50 is 1000 to 3000 nM and the Emax is greater than 60%.

As to `Cc1cccc(C)c1-c1cc2nc(n1)NS(=O)(=O)c1cccc(c1)C(=O)N(Cc1cnc3cc(C(C)(C)C)[nH]c3n1)[C@H](CC1(C)CC1)CO2` [IV-54, (11R)-12-[(6-tert-butyl-5H-pyrrolo[2,3-b]pyrazin-3-yl)methyl]-6-(2,6-dimethylphenyl)-11-[(1-methylcyclopropyl)methyl]-2,2-dioxo-9-oxa-2λ^6-thia-3,5,12,19-tetrazatricyclo[12.3.1.14,8]nonadeca-1(18),4(19),5,7,14,16-hexaen-13-one], the ring closure, yield after HPLC in data set [1] (from Cc1cccc(C)c1-c1cc(OC[C@@H](CC2(C)CC2)NCc2cnc3cc(C(C)(C)C)[nH]c3n2)nc(NS(=O)(=O)c2cccc(C(=O)O)c2)n1, 9.99 mM, 25.0 °C, 5.5 h) was 44%. In data set [2], the EC50 is 3000 to 30000 nM and the Emax is greater than 60%.

The compound `Cc1cccc(C)c1-c1cc2nc(n1)NS(=O)(=O)c1cccc(c1)C(=O)N(Cc1cnc3c(n1)C(=O)N(C(C)C)C3)[C@H](CC1(C)CC1)CO2` [III-21, (11R)-6-(2,6-Dimethylphenyl)-12-[(6-isopropyl-5-oxo-7H-pyrrolo[3,4-b]pyrazin-3-yl)methyl]-11-[(1-methylcyclopropyl)methyl]-2,2-dioxo-9-oxa-2λ^6-thia-3,5,12,19-tetrazatricyclo[12.3.1.14,8]nonadeca-1(18),4(19),5,7,14,16-hexaen-13-one] displayed a ring closure, yield after HPLC in data set [1] (from Cc1cccc(C)c1-c1cc(OC[C@@H](CC2(C)CC2)NCc2cnc3c(n2)C(=O)N(C(C)C)C3)nc(NS(=O)(=O)c2cccc(C(=O)O)c2)n1, 9.0 mM, 16.5 h) of 31%. Also, in data set [2] (18-24 hours), the Emax was greater than 60%. The EC50 in data set [2] was 1000 to 3000 nM.

As for `Cc1cccc(C)c1-c1cc2nc(n1)NS(=O)(=O)c1cccc(c1)C(=O)N(Cc1nc3cc(C4CC4)oc3cc1F)[C@H](CC1(C)CC1)CO2` [Compound I-197, (11R)-12-[(2-cyclopropyl-6-fluoro-furo[3,2-b]pyridin-5-yl)methyl]-6-(2,6-dimethylphenyl)-11-[(1-methylcyclopropyl)methyl]-2,2-dioxo-9-oxa-2λ^6-thia-3,5,12,19-tetrazatricyclo[12.3.1.14,8]nonadeca-1(18),4(19),5,7,14,16-hexaen-13-one], the ring closure, yield after HPLC in data set [1] (from Cc1cccc(C)c1-c1cc(OC[C@@H](CC2(C)CC2)NCc2nc3cc(C4CC4)oc3cc2F)nc(NS(=O)(=O)c2cccc(C(=O)O)c2)n1, 19.2 mM, 16.33 h) was determined as 62%. For the same compound, the Emax in data set [2] (18-24 hours) was greater than 60%. Further, the concentration for a half-maximal effect (EC50) in data set [2] is 1000 to 3000 nM.

The compound `CCc1cccc(CC)c1-c1cc2nc(n1)NS(=O)(=O)c1cccc(c1)C(=O)N(Cc1cnc3c(CCOC)c(C(C)(C)C)n(C)c3n1)[C@H](CC(C)C)CO2` [IV-92, (11R)-12-[[6-tert-butyl-7-(2-methoxyethyl)-5-methyl-pyrrolo[2,3-b]pyrazin-3-yl]methyl]-6-(2,6-diethylphenyl)-11-isobutyl-2,2-dioxo-9-oxa-2λ^6-thia-3,5,12,19-tetrazatricyclo[12.3.1.14,8]nonadeca-1(18),4(19),5,7,14,16-hexaen-13-one] registered a ring closure, yield after HPLC in data set [1] (from CCc1cccc(CC)c1-c1cc(OC[C@@H](CC(C)C)NCc2cnc3c(CCOC)c(C(C)(C)C)n(C)c3n2)nc(NS(=O)(=O)c2cccc(C(=O)O)c2)n1, 34.0 mM, 25.0 °C, 2.0 h) of 22%. Moreover, in data set [2], the EC50 was less than 1000 nM and the Emax is greater than 60%.

In turn, `Cc1cccc(C)c1-c1cc2nc(n1)NS(=O)(=O)c1cccc(c1)C(=O)N(Cc1cnc3oc(C(C)(C)COCc4ccccc4)cc3n1)[C@H](CC13CC(C1)C3)CO2` returned a ring closure, yield after HPLC in data set [1] (from Cc1cccc(C)c1-c1cc(OC[C@@H](CC23CC(C2)C3)NCc2cnc3oc(C(C)(C)COCc4ccccc4)cc3n2)nc(NS(=O)(=O)c2cccc(C(=O)O)c2)n1, 31.3 mM, 16.0 h) of 69%.

The compound `Cc1cccc(C)c1-c1cc2nc(n1)NS(=O)(=O)c1cccc(c1)C(=O)N(Cc1cnc3cc(C(C)(C)C)n(C)c3n1)[C@H](C1CCCO1)CO2` (single isomer, unassigned; isomer a) registered a ring closure, yield after HPLC in data set [1] (from Cc1cccc(C)c1-c1cc(OC[C@H](NCc2cnc3cc(C(C)(C)C)n(C)c3n2)C2CCCO2)nc(NS(=O)(=O)c2cccc(C(=O)O)c2)n1, 13.2 mM, 25.0 °C, 20.0 h) of 53%.

In the case of `Cc1cccc(C)c1-c1cc2nc(n1)NS(=O)(=O)c1cccc(c1)C(=O)N(Cc1ccn3nc(C(C)C)cc3n1)[C@H](CC1(C)CC1)CO2`, the ring closure, yield after HPLC in data set [1] (from Cc1cccc(C)c1-c1cc(OC[C@@H](CC2(C)CC2)NCc2ccn3nc(C(C)C)cc3n2)nc(NS(=O)(=O)c2cccc(C(=O)O)c2)n1, 9.91 mM, 25.0 °C, 16.5 h) was 43%.

In the case of `Cc1cccc(C)c1-c1cc2nc(n1)NS(=O)(=O)c1cccc(c1)C(=O)N(Cc1cnc3cc(C(C)(C)C(F)(F)F)n(C)c3n1)[C@H](CC13CC(C1)C3)CO2` [IV-102, (11R)-11-(1-bicyclo[1.1.1]pentanylmethyl)-6-(2,6-dimethylphenyl)-12-[[5-methyl-6-(2,2,2-trifluoro-1,1-dimethyl-ethyl)pyrrolo[2,3-b]pyrazin-3-yl]methyl]-2,2-dioxo-9-oxa-2λ^6-thia-3,5,12,19-tetrazatricyclo[12.3.1.14,8]nonadeca-1(18),4(19),5,7,14,16-hexaen-13-one], the ring closure, yield after HPLC in data set [1] (from Cc1cccc(C)c1-c1cc(OC[C@@H](CC23CC(C2)C3)NCc2cnc3cc(C(C)(C)C(F)(F)F)n(C)c3n2)nc(NS(=O)(=O)c2cccc(C(=O)O)c2)n1, 9.8 mM, 25.0 °C, 4.0 h) is 65%. In data set [2], the EC50 is less than 1000 nM and the Emax is greater than 60%.

In the case of “(5P,11R)-6-[2-(cyclopentylmethyl)-6-methylphenyl]-11-(2,2-dimethylpropyl)-7-methyl-12-{[5-methyl-6-(propan-2-yl)-5H-pyrrolo[2,3-b]pyrazin-3-yl]methyl}-9-oxa-2λ^6-thia-3,5,12,19-tetraazatricyclo[12.3.1.1∧{4,8}]nonadeca-1(17),4(19),5,7,14(18),15-hexaene-2,2,13-trione”, the ring closure, yield after HPLC in data set [1] (9.74 mM) turned out to be 45%.

For “(6P,11S)-12-({6-tert-butyl-5-methyl-5H-pyrrolo[2,3-b]pyrazin-3-yl}methyl)-7-methyl-6-[2-methyl-6-(2-methylpropyl)phenyl]-11-[(trifluoromethoxy)methyl]-9-oxa-2λ^6-thia-3,5,12,19-tetraazatricyclo[12.3.1.1∧{4,8}]nonadeca-1(17),4,6,8(19),14(18),15-hexaene-2,2,13-trione”, the ring closure, yield after HPLC in data set [1] (8.87 mM, 25.0 °C) stood at 36%.

On to `Cc1cccc(C)c1-c1cc2nc(n1)NS(=N)(=O)c1cccc(c1)C(=O)N(Cc1cnc3oc(C4CC4)cc3n1)[C@H](CC(C)(C)C)CO2` (single isomer, unassigned; isomer a), for which the ring closure, yield after HPLC in data set [1] (from 3-[[[4-[(2R)-2-[(6-Cyclopropylfuro[2,3-b]pyrazin-2-yl)methylamino]-4,4-dimethyl-pentoxy]-6-(2,6-dimethylphenyl)pyrimidin-2-yl]amino]sulfonimidoyl]benzoic acid (hydrochloride salt) (isomer A), 14.2 mM) is 23%.

Turning to “(5P,11R)-7-methyl-6-[2-methyl-6-(2-methylpropyl)phenyl]-12-({5-methyl-6-[1-(trifluoromethyl)cyclopropyl]-5H-pyrrolo[2,3-b]pyrazin-3-yl}methyl)-11-[(propan-2-yloxy)methyl]-9-oxa-2λ^6-thia-3,5,12,19-tetraazatricyclo[12.3.1.1∧{4,8}]nonadeca-1(18),4(19),5,7,14,16-hexaene-2,2,13-trione”, the ring closure, yield after HPLC in data set [1] (13.9 mM, 25.0 °C) is 65%.
